What all share (assay type): cell-based
One test relates to NIH/3T3 BTK C481S cells. In words: Phosphor-BTK(Y223) assay, adherent cells. The following applies: Mus musculus, NIH3T3, phosphorylated BTK Y223, NIH/3T3 BTK C481S cells; read-out: NIH/3T3 BTK-C481S pBTK. As for the experimental part:
(§1) The purpose of this assay was to simply, quickly and directly detect the level of endogenous BTK phosphorylation in cells.
(§2) The steps for handling adherent cells were as follows: • 1) NIH/3T3 BTK WT cells (7.5 k/well) and NIH/3T3 BTK C481S cells (10 k/well) were plated in a 96-well plate, respectively, and cultured at 37 °C and 5% CO2 overnight. • 2) A 3-fold final concentration gradient dilution of a compound was prepared, and 50 µL of it was taken and added to 100 µL of cell culture. 0.5% DMSO was used as a positive control for cell growth. • 3) The plate was incubated at 37 °C and 5% CO2 for 0.5 h. • 4) Na3VO4 at a final concentration of 1mM was added, and the plate was incubated at 37 °C and 5% CO2 for 2 hours. • 5) During the incubation, the following reagents were prepared: • 1x added lysis buffer: 3 vol ddH2O + 1 vol 4x lysis buffer + 100x blocking reagent. • p-BTK (Y223) cryptate-antibody and p-BTK (Y223) d2-antibody working solutions: 1 volume of each cryopreserved antibody (stored at - 20 °C) was added to 19 times the volume of assay buffer (stored at 4 °C). • 6) After the incubation was completed, the medium was removed and 50 µL of 1x added lysis buffer was added. The plate was centrifuged at 500 rpm at room temperature for 30 min. • 7) The lysate was mixed well and 16 µL of it was transferred to a 384-well plate. 1 × added lysis buffer was used as a blank control. • 8) 4 µL of pre-mixed working solutions of the two antibodies (cryptate Ab:d2 Ab = 1:1) was added, and the plate was sealed. • 9) The plate was incubated at room temperature overnight. 10) The plate was read at 665nm and 620nm using Biotek cytation3.0 microplate reader, and the ratio of 665/620nm of each well was calculated.
(§3) The IC50 (half-maximal phosphorylation inhibitory concentration) of the phosphorylated BTK Y223 of the compound was obtained using the following nonlinear fitting formula: Y = Bottom + (Top−Bottom)/(1+10^(∧)((LogIC50−X)*HillSlope)) [formula] • X: Log value of the compound concentration • Y: Inhibition rate (% inhibition) • Top: Maximum response • Bottom: Baseline response • HillSlope: Slope of the curve
(§4) The formula for calculating cell phosphorylation inhibition rate (inhibition rate %) was: Inhibition rate% = 1−(eachconcentrationwell-blankwell)/(positivecontrolwell−blankwell) [formula]

For a further test, the system named is NIH/3T3 BTK WT cells. As to the kind of experiment: Phosphor-BTK(Y223) assay, adherent cells. The following applies: Mus musculus, NIH3T3, phosphorylated BTK Y223, NIH/3T3 BTK WT cells; read-out: NIH/3T3 BTK-WT pBTK. Here is the method: as §1, §2, §3, §4
A further test deals with Ramos cells with BTK WT. In words: Phosphor-BTK(Y223) assay, suspended cells. Particulars: Homo sapiens, Ramos, phosphorylated BTK Y223, Ramos cells with BTK WT. Here is the method:
as §1
The steps for handling suspended cells were as follows: • 1) Ramos cells with BTK WT (2.5 k/well), BTK C481S (2.5 k/well), or BTK T474I (2.5 k/well) were plated in a 96-well plate, respectively. A compound of different concentration gradients was added using Tecan D300e, and the plate was incubated at 37 °C and 5% CO2 for 2 hours. • 2) 8.33 µL of 20 mM Na3VO4 was added to bring the final concentration to 5 mM, and the plate was incubated at 37 °C and 5% CO2 for 3 h. • 3) During the incubation, the following reagents were prepared: • 4x added lysis buffer: 24 vol 4x lysis buffer + 1 vol 25x blocking reagent. • p-BTK (Y223) cryptate-antibody and p-BTK (Y223) d2-antibody working solutions: 1 volume of each cryopreserved antibody (stored at - 20 °C) was added to 38 times the volume of assay buffer (stored at 4 °C), and mixed well. • 4) After the incubation was completed, 11.1 µL of 4x added lysis buffer was directly added. The plate was shaken at 800 rpm at room temperature for 30 min. • 5) The lysate was mixed well and 16 µL of it was transferred to a 384-well plate. 1 × added lysis buffer was used as a blank control. • 6) 4 µL of pre-mixed working solutions of the two antibodies (cryptate Ab:d2 Ab = 1:1) was added, and the plate was sealed. • 7) The plate was incubated at room temperature overnight. • 8) The plate was read at 665nm and 620nm using Biotek cytation3.0 microplate reader, and the ratio of 665/620nm of each well was calculated. Data analysis: IC50 was calculated using GraphPad Prism 7.0 software.
as §3, §4

SMILES strings stand for the structures.

As for `COc1ccc(F)cc1C(=O)NCc1ccc(-c2ncc(-c3cnc4cnccn34)c3[nH]nc(N)c23)cc1` [Example 64, N-(4-(3-amino-7-(imidazo[1,2-a]pyrazin-3-yl)-1H-pyrazolo[4,3-c]pyridin-4-yl)benzyl)-5-fluoro-2-methoxybenzamide], the IC50 in the test with NIH/3T3 BTK C481S cells, with NIH/3T3 BTK WT cells and in the test with Ramos cells with BTK WT was greater than 50 nM each time.

In the case of `COc1ccc(F)cc1C(=O)NCc1ccc(-c2ncc(C(=O)NC3CC3)c3[nH]nc(N)c23)cc1` [Example 81, 3-amino-N-cyclopropyl-4-(4-((5-fluoro-2-methoxybenzoylamino)methyl)phenyl)-1H-pyrazolo[4,3-c]pyridine-7-carboxamide], the IC50 with NIH/3T3 BTK C481S cells, in the test with NIH/3T3 BTK WT cells and in the test with Ramos cells with BTK WT was greater than 50 nM in each case.

Regarding `COc1ccc(F)cc1C(=O)NCc1ccc(-c2ncc(-c3ccc(F)cn3)c3[nH]nc(N)c23)c(C)c1` [Example 83, N-(4-(3-amino-7-(5-fluoropyridin-2-yl)-1H-pyrazolo[4,3-c]pyridin-4-yl)-3-methylbenzyl)-5-fluoro-2-methoxybenzamide], the IC50 with NIH/3T3 BTK C481S cells was greater than 50 nM; with NIH/3T3 BTK WT cells, 10 to 50 nM; with Ramos cells with BTK WT it was greater than 50 nM.

Turning to `COc1ccc(F)cc1C(=O)NCc1ccc(-c2nc(-c3ccccc3C)cc3[nH]nc(N)c23)cc1` [Example 87, N-(4-(3-amino-6-(o-tolyl)-1H-pyrazolo[4,3-c]pyridin-4-yl)benzyl)-5-fluoro-2-methoxybenzamide], the IC50 in the test on NIH/3T3 BTK C481S cells, in the test with NIH/3T3 BTK WT cells and with Ramos cells with BTK WT was greater than 50 nM in each case.

`COc1ccc(F)cc1C(=O)NCc1ccc(-c2nc(-c3ccccc3Cl)cc3[nH]nc(N)c23)cc1` [Example 88, N-(4-(3-amino-6-(2-chlorophenyl)-1H-pyrazolo[4,3-c]pyridin-4-yl)benzyl)-5-fluoro-2-methoxybenzamide]: the IC50 was greater than 50 nM in the test on NIH/3T3 BTK C481S cells, 10 to 50 nM with NIH/3T3 BTK WT cells and 5 to 10 nM with Ramos cells with BTK WT.

Turning to `COc1ccc(F)cc1C(=O)NCc1ccc(-c2nc(-c3c(Cl)cccc3Cl)cc3[nH]nc(N)c23)cc1` [Example 89, N-(4-(3-amino-6-(2,6-dichlorophenyl)-1H-pyrazolo[4,3-c]pyridin-4-yl)benzyl)-5-fluoro-2-methoxybenzamide], the values for the IC50 with NIH/3T3 BTK C481S cells, in the test with NIH/3T3 BTK WT cells and in the test with Ramos cells with BTK WT were greater than 50 nM, 10 to 50 nM and 10 to 50 nM, respectively.

With `COc1ccc(F)cc1C(=O)NCc1ccc(-c2nc(-c3ccc(C(=O)O)cc3)cc3[nH]nc(N)c23)cc1` [Example 90, 4-(3-amino-4-(4-((5-fluoro-2-methoxybenzoylamino)methyl)phenyl)-1H-pyrazolo[4,3-c]pyridin-6-yl)benzoic acid], the IC50 in the test with NIH/3T3 BTK C481S cells, in the test with NIH/3T3 BTK WT cells and with Ramos cells with BTK WT was greater than 50 nM each time.

As for `Nc1n[nH]c2cc(C3CC[S+]([O-])CC3)nc(-c3ccc(CNC(=O)c4cc(F)ccc4O)cc3)c12` (stereo not drawn) [Example 92, N-(4-(3-amino-6-(1-oxidotetrahydro-2H-thiopyran-4-yl)-1H-pyrazolo[4,3-c]pyridin-4-yl)benzyl)-5-fluoro-2-hydroxybenzamide], the figures for the IC50 in the test with NIH/3T3 BTK C481S cells, in the test with NIH/3T3 BTK WT cells and with Ramos cells with BTK WT were greater than 50 nM, greater than 50 nM and 10 to 50 nM, respectively.

Regarding `COc1ccc(F)cc1C(=O)NCc1ccc(-c2nc(C3CCS(=O)(=O)CC3)cc3[nH]nc(N)c23)cc1` [Example 93, N-(4-(3-amino-6-(1,1-dioxidotetrahydro-2H-thiopyran-4-yl)-1H-pyrazolo[4,3-c]pyridin-4-yl)benzyl)-5-fluoro-2-methoxybenzamide], the IC50 in the test with NIH/3T3 BTK C481S cells, with NIH/3T3 BTK WT cells and with Ramos cells with BTK WT was greater than 50 nM in each case.

Turning to `COc1ccc(F)cc1C(=O)NCc1ccc(-c2nc(Cl)cc3[nH]nc(N)c23)cc1` [Example 94, N-(4-(3-amino-6-chloro-1H-pyrazolo[4,3-c]pyridin-4-yl)benzyl)-5-fluoro-2-methoxybenzamide], the IC50 in the test on NIH/3T3 BTK C481S cells, in the test with NIH/3T3 BTK WT cells and with Ramos cells with BTK WT was greater than 50 nM throughout.

`COc1ccc(F)cc1C(=O)NCc1ccc(-c2nc(C3CCCN(C(=O)Nc4ccccc4)C3)cc3[nH]nc(N)c23)cc1` (stereo not drawn) [Example 95, 3-(3-amino-4-(4-((5-fluoro-2-methoxybenzoylamino)methyl)phenyl)-1H-pyrazolo[4,3-c]pyridin-6-yl)-N-phenylpiperidine-1-carboxamide]: the IC50 with NIH/3T3 BTK C481S cells is greater than 50 nM; in the test on NIH/3T3 BTK WT cells, greater than 50 nM; in the test on Ramos cells with BTK WT it was 5 to 10 nM.

As to `COc1ccc(F)cc1C(=O)NCc1ccc(-c2nc(C3CCN(C(=O)Nc4ccccc4)CC3)cc3[nH]nc(N)c23)cc1` [Example 97, 4-(3-amino-4-(4-((5-fluoro-2-methoxvbenzoylamino)methyl)phenyl)-1H-pyrazolo[4,3-c]pyridin-6-yl)-N-phenylpiperidine-1-carboxamide], the values for the IC50 with NIH/3T3 BTK C481S cells, with NIH/3T3 BTK WT cells and in the test with Ramos cells with BTK WT were greater than 50 nM, greater than 50 nM and 5 to 10 nM, respectively.

With `COc1ccc(F)cc1C(=O)NCc1ccc(-c2ncc(-c3cnn4ccncc34)c3[nH]nc(N)c23)cc1` [Example 109, N-(4-(3-amino-7-(pyrazolo[1,5-a]pyrazin-3-yl)-1H-pyrazolo[4,3-c]pyridin-4-yl)benzyl)-5-fluoro-2-methoxybenzamide], the IC50 with NIH/3T3 BTK C481S cells, in the test with NIH/3T3 BTK WT cells and in the test with Ramos cells with BTK WT was greater than 50 nM in each case.

Turning to `COc1ccc(F)cc1C(=O)NCc1ccc(-c2ncc(-c3cnc4cccnn34)c3[nH]nc(N)c23)cc1` [Example 110, N-(4-(3-amino-7-(imidazo[1,2-b]pyridazin-3-yl)-1H-pyrazolo[4,3-c]pyridin-4-yl)benzyl)-5-fluoro-2-methoxybenzamide], the IC50 in the test with NIH/3T3 BTK C481S cells, in the test with NIH/3T3 BTK WT cells and in the test on Ramos cells with BTK WT was greater than 50 nM throughout.

In the case of `COc1ccc(F)cc1C(=O)NCc1ccc(-c2ncc(-c3ccnc4ccnn34)c3[nH]nc(N)c23)cc1` [Example 111, N-(4-(3-amino-7-(pyrazolo[1,5-a]pyrimidin-7-yl)-1H-pyrazolo[4,3-c]pyridin-4-yl)benzyl)-5-fluoro-2-methoxybenzamide], the IC50 in the test on NIH/3T3 BTK C481S cells, with NIH/3T3 BTK WT cells and with Ramos cells with BTK WT was greater than 50 nM throughout.

Consider `COc1ccc(F)cc1C(=O)NCc1ccc(-c2ncc(-c3ncn4ccccc34)c3[nH]nc(N)c23)cc1` [Example 113, N-(4-(3-amino-7-(imidazo[1,5-a]pyridin-1-yl)-1H-pyrazolo[4,3-c]pyridin-4-yl)benzyl)-5-fluoro-2-methoxybenzamide], for which the IC50 in the test on NIH/3T3 BTK C481S cells, in the test on NIH/3T3 BTK WT cells and in the test with Ramos cells with BTK WT was no more than 5 nM throughout.

As for `COc1ccc(F)cc1C(=O)NCc1ccc(-c2nccc3[nH]nc(N)c23)cc1` [Example 116, N-(4-(3-amino-1H-pyrazolo[4,3-c]pyridin-4-yl)benzyl)-5-fluoro-2-methoxvbenzamide], the IC50 in the test with NIH/3T3 BTK C481S cells, in the test on NIH/3T3 BTK WT cells and with Ramos cells with BTK WT was greater than 50 nM throughout.
